Laboratory results published in patent US20210353579A1, “HIGH PENETRATION COMPOSITIONS AND USES THEREOF” (Techfields Pharma Co., Ltd., priority 2006, published 2021).

Key:
[1] = test system: Human breast cancer cells (BCAP-37); test: Human breast cancer xenograft in nude mice, topical; conditions: day 42, 30 μl of 5% (1.5 mg) topically every 8 hours from day 14; for Tumor size: control 800 ± 100
Protocol: Human breast cancer cells (BCAP-37, 2-3 mm^3 of tumor tissue was used in each mouse) are subcutaneously xenografted into the front leg of nude mice (BALB, 12 groups, 7 mice each group). […] Then 30 μl of 5% (equal to 1.5 mg of the HPPs) diethylaminoethyl acetylsalicylate.acetylsalicylic acid salt (P-1, in acetone); 1-piperidinepropyl 2[(2,6-dichlorophenyl)amino]benzene acetate.AcOH (P-2, in water), 1-pyrrolidinepropyl 2-(3-benzoylphenyl) propionate.AcOH (P-3, in water), 4-piperidinemethyl 2-(3-phenoxyphenyl)propionate.AcOH (P-4, in water), 3-piperidinemethyl 2-(ρ-isobutylphenyl) propionate.AcOH (P-5, in water), diethylaminoethyl 1-(p-chlorobenzoyl)-5-methoxy-2-methylindole 3-acetate.AcOH (P-11, in water), 2-(4-morpholinyl)ethyl (Z)-5-fluoro-2-methyl-1-[(4-methylsulfinyl) phenylmethylene]-1H-indene-3-acetate.AcOH (P-12, in water), diethylaminoethyl

[2] = test system: normal rats; test: Blood glucose in normal rats, oral with food; type: in vivo, rat; conditions: for Blood glucose, Normal rats, Average: average second to fifth week, equal to 20 mg/kg of NSAIAs every day; for Blood glucose, Normal rats, Baseline: equal to 20 mg/kg of NSAIAs
[3] = test system: rats (SLAC/GK, type 2 diabetes); test: Blood lipid in type 2 diabetes rats, oral with food; type: in vivo, rat; conditions: for Cholesterol (HDL), Baseline / Cholesterol (total), Baseline / Triglycerides, Baseline: equal to 20 mg/kg of NSAIAs; for Cholesterol (HDL), Average / Cholesterol (total), Average / Triglycerides, Average: end of the fifth week, equal to 20 mg/kg of NSAIAs every day
Text: (§1) 20% acetone solution of diethylaminoethyl acetylsalicylate.acetylsalicylic acid salt (P-1, in acetone); 4-acetamidophenyl salicylyldimethylaminobutyrate.HCl (P-6), diethylaminoethyl 5-(2,4-difluorophenyl) acetylsalicylate.5-(2,4-difluorophenyl) acetylsalicylic acid salt (P-8), diethylaminoethyl salicylsalicylate.AcOH (P-9), diethylaminoethyl salicylate.AcOH (P-10), diethylaminoethyl 5-acetamido-acetylsalicylate (P-58), diethylaminoethyl acetylsalicylsalicylate. acetylsalicylsalicylic acid salt (P-59), diethylaminoethyl acetylsalicylsalicylate. acetylsalicylsalicylsalicylic acid salt (P-60) (equal to of 20 mg/kg of NSAIAs) were mixed with food and were orally administered to the rats (SLAC/GK, type 2 diabetes, n=7) with food every day for 5 weeks. The blood glucose levels were measured once every 3 days at 3 pm (no fasting) from the second week to the fifth week. The blood lipid levels were measured at the end of the fifth week.

[4] = test system: rats (SLAC/GK, type 2 diabetes); test: Blood glucose in type 2 diabetes rats, transdermal; type: in vivo, rat; conditions: diabetic rats (SLAC/GK); for Blood glucose, Average: average second to fifth week, no fasting, equal to 20 mg/kg of NSAIAs once per day for 5 weeks; for Blood glucose, Baseline: equal to 20 mg/kg of NSAIAs once per day
Text: (§2) HPPs lower blood glucose level in rat models (SLAC/GK, type 2 diabetes, n=7). 50% acetone solution of diethylaminoethyl acetylsalicylate.acetylsalicylic acid salt (P-1, in acetone); 4-acetamidophenyl salicylyldimethylaminobutyrate.HCl (P-6), diethylaminoethyl 5-(2,4-difluorophenyl) acetylsalicylate.5-(2,4-difluorophenyl).acetylsalicylic acid salt (P-8), diethylaminoethyl salicylsalicylate.AcOH (P-9), diethylaminoethyl salicylate.AcOH (P-10), diethylaminoethyl 5-acetamido-acetylsalicylate (P-58), diethylaminoethyl acetylsalicylsalicylate.acetylsalicylsalicylic acid salt (P-59), diethylaminoethyl acetylsalicylsalicylate.acetylsalicylsalicylsalicylic acid salt (P-60) (equal to of 20 mg/kg of NSAIAs) are administered transdermally to the backs (about 1.5 cm^2) of rats (fur was shaved) once per day (at 8 am) for 5 weeks. The blood glucose levels are measured once every 3 days at 3 pm (no fasting) from the second week to the fifth week (Table 24). The blood lipid levels are measured at the end of the fifth week (Table 25).

[5] = test system: rats (SLAC/GK, type 2 diabetes); test: Blood lipid in type 2 diabetes rats, transdermal; type: in vivo, rat; conditions: for Cholesterol (HDL), Baseline / Cholesterol (total), Baseline / Triglycerides, Baseline: equal to 20 mg/kg of NSAIAs; for Cholesterol (HDL), Average / Cholesterol (total), Average / Triglycerides, Average: end of the fifth week, equal to 20 mg/kg of NSAIAs once per day
Text: as §2

[6] = test system: mice (SLAC:NOD-IDDM, type 1 diabetes); test: Blood glucose in type 1 diabetes mice, transdermal; type: in vivo, mouse; conditions: for Blood glucose, Average: average fourth to seventh week, no fasting, equal to 30 mg/kg of NSAIAs once per day for 7 weeks; for Blood glucose, Baseline: equal to 30 mg/kg of NSAIAs
Text: The pro-drugs in this invention lower blood glucose levels in mouse models (SLAC:NOD-IDDM, type 1 diabetes, n=7). 50% acetone solution of diethylaminoethyl acetylsalicylate.acetylsalicylic acid salt (P-1, in acetone); 4-acetamidophenyl salicylyldimethylaminobutyrate.HCl (P-6), diethylaminoethyl 5-(2,4-difluorophenyl) acetylsalicylate.5-(2,4-difluorophenyl) acetylsalicylic acid salt (P-8), diethylaminoethyl salicylsalicylate.AcOH (P-9), diethylaminoethyl salicylate.AcOH (P-10), diethylaminoethyl 5-acetamido-acetylsalicylate (P-58), diethylaminoethyl acetylsalicylsalicylate. acetylsalicylsalicylic acid salt (P-59), diethylaminoethyl acetylsalicylsalicylate. acetylsalicylsalicylsalicylic acid salt (P-60) (equal to of 30 mg/kg of NSAIAs) were administered transdermally to the backs (about 1.5 cm^2) of mice (fur was shaved) once per day (at 8 am) for 7 weeks. The blood glucose levels were measured once every 3 days at 3 pm (no fasting) from the fourth week to the seventh week.

[7] = test system: rats (SLAC/GK, type 2 diabetes); test: Blood glucose in type 2 diabetes rats, oral with food; type: in vivo, rat; conditions: for Blood glucose, Diabetic rats, Average: average second to fifth week, no fasting, equal to 20 mg/kg of NSAIAs every day for 5 weeks; for Blood glucose, Diabetic rats, Baseline: equal to 20 mg/kg of NSAIAs
Text: as §1

[8] = test system: normal rats; test: Blood glucose in normal rats, transdermal; type: in vivo, rat; conditions: for Blood glucose, Average: normal rats (second Average line of Table 24), average second to fifth week, equal to 20 mg/kg of NSAIAs once per day; for Blood glucose, Baseline: normal rats (second Baseline line of Table 24), equal to 20 mg/kg of NSAIAs
Text: as §2, with “25). […]” for “25).”

CC(=O)O.CC1=C(CC(=O)OCCN2CCOCC2)c2cc(F)ccc2/C1=C\c1ccc([S+](C)[O-])cc1 (centres unmarked) [P-12, 2-(4-morpholinyl)ethyl (Z)-5-fluoro-2-methyl-1-[(4-methylsulfinyl)phenylmethylene]-1H-indene-3-acetate.AcOH]
Tumor size [1]: 250 ± 50 mm^3

CCN(CC)CCOC(=O)c1cc(NC(C)=O)ccc1OC(C)=O [P-58, diethylaminoethyl 5-acetamido-acetylsalicylate]
Blood glucose, Normal rats, Average [2]: 7.2 ± 1 mmol/L | Blood glucose, Normal rats, Baseline [2]: 6.9 ± 1 mmol/L | Cholesterol (HDL), Baseline [3]: 1.8 ± 0.1 mmol/L | Cholesterol (total), Baseline [3]: 7.9 ± 0.5 mmol/L | Triglycerides, Baseline [3]: 5.5 ± 0.5 mmol/L | Cholesterol (HDL), Average [3]: 1.6 ± 0.2 mmol/L | Cholesterol (total), Average [3]: 5.8 ± 0.4 mmol/L | Triglycerides, Average [3]: 1.8 ± 0.2 mmol/L | Blood glucose, Average [4]: 8.4 ± 1 mmol/L | Blood glucose, Baseline [4]: 17.1 ± 3 mmol/L | Cholesterol (HDL), Baseline [5]: 1.3 ± 0.1 mmol/L | Cholesterol (total), Baseline [5]: 7.8 ± 0.5 mmol/L | Triglycerides, Baseline [5]: 5.3 ± 0.5 mmol/L | Cholesterol (HDL), Average [5]: 1.4 ± 0.2 mmol/L | Cholesterol (total), Average [5]: 5.6 ± 0.4 mmol/L | Triglycerides, Average [5]: 2.4 ± 0.2 mmol/L | Blood glucose, Average [6]: 7.9 ± 1 mmol/L | Blood glucose, Baseline [6]: 27.1 ± 3 mmol/L | Blood glucose, Diabetic rats, Average [7]: 8.4 ± 1 mmol/L | Blood glucose, Diabetic rats, Baseline [7]: 17.0 ± 3 mmol/L | Blood glucose, Average [8]: 7.1 ± 1 mmol/L | Blood glucose, Baseline [8]: 6.9 ± 1 mmol/L

CC(=O)Nc1ccc(OC(=O)c2ccccc2OC(=O)CCCN(C)C)cc1.Cl [P-6]
Blood glucose, Normal rats, Average [2]: 6.4 ± 1 mmol/L | Blood glucose, Normal rats, Baseline [2]: 6.5 ± 1 mmol/L | Cholesterol (HDL), Baseline [3]: 1.5 ± 0.1 mmol/L | Cholesterol (total), Baseline [3]: 7.5 ± 0.4 mmol/L | Triglycerides, Baseline [3]: 5.5 ± 0.5 mmol/L | Cholesterol (HDL), Average [3]: 1.4 ± 0.2 mmol/L | Cholesterol (total), Average [3]: 4.9 ± 0.4 mmol/L | Triglycerides, Average [3]: 1.8 ± 0.2 mmol/L | Blood glucose, Average [4]: 8.5 ± 2 mmol/L | Blood glucose, Baseline [4]: 16.7 ± 4 mmol/L | Cholesterol (HDL), Baseline [5]: 1.3 ± 0.1 mmol/L | Cholesterol (total), Baseline [5]: 7.3 ± 0.5 mmol/L | Triglycerides, Baseline [5]: 5.3 ± 0.5 mmol/L | Cholesterol (HDL), Average [5]: 1.3 ± 0.2 mmol/L | Cholesterol (total), Average [5]: 4.7 ± 0.4 mmol/L | Triglycerides, Average [5]: 2.3 ± 0.2 mmol/L | Blood glucose, Average [6]: 9.5 ± 2 mmol/L | Blood glucose, Baseline [6]: 27.7 ± 4 mmol/L | Blood glucose, Diabetic rats, Average [7]: 7.5 ± 2 mmol/L | Blood glucose, Diabetic rats, Baseline [7]: 16.1 ± 4 mmol/L | Blood glucose, Average [8]: 6.5 ± 1 mmol/L | Blood glucose, Baseline [8]: 6.8 ± 1 mmol/L

CC(=O)O.O=C(OCCCN1CCCC1)c1ccccc1Nc1cccc(C(F)(F)F)c1 [P-48]
Mouse weight ([1]; control 22 ± 2): 22 ± 3 g | Tumor size [1]: 290 ± 50 mm^3
